Laboratory results published in patent US20220288048A1, “PIMAVANSERIN FOR TREATING SCHIZOPHRENIA OR FOR TREATING PSYCHOSIS SECONDARY TO NEURODEGENERATIVE DISORDERS OR DEPRESSIVE DISORDER” (ACADIA Pharmaceuticals Inc., priority 2019, published 2022).

Test system: adult schizophrenia patients with a persistent inadequate response to their existing antipsychotic therapy
Assay: 6-week study of pimavanserin or placebo added to existing antipsychotic treatment: efficacy rating scales
Assay type: in vivo, human
Description: The effect of pimavanserin as an adjunctive treatment in adult schizophrenia patients with a persistent inadequate response (i.e., partial responders) to their existing antipsychotic therapy was tested. 396 patients with moderate-to-severe psychotic symptoms were randomized to receive either pimavanserin or placebo added to existing antipsychotic treatment. […] Dosages of background oral antipsychotics could not be changed within four weeks of screening and dosages of long-acting injectables (LAI) could not be changed within 16 weeks of screening. […] Patients were administered a daily dose of pimavanserin or a placebo for six weeks. The dose started at 20 mg and could be adjusted to 34 mg or 10 mg between weeks 1 and 3. The majority of patients (56%) completed the study at the highest dose level. Patients were evaluated at baseline and on a weekly basis according to the clinical rating scale Positive and Negative Symptom Scale (PANSS). The PANSS is a 30-item, 7-point rating system that was developed to cover a range of negative symptoms not adequately measured by the Brief Psychiatric Rating Scale. It has sections that specifically measure positive symptoms, negative symptoms, and general psychopathology in schizophrenic subjects. The PANSS is widely used in trials of antipsychotic drug treatment, and has been formally validated for such use. A subset of 5 of the PANSS factors, the […] factors, were also evaluated. Other clinical rating scales that were assessed were the Clinical Global Impression Scale (CGI), Personal and Social Performance Scale (PSP), drug attitude inventory (DAI-10), Karolinska Sleepiness Scale (KSS), Calgary Depression Scale for Schizophrenia (CDSS), 36-item Short Form Physical Health evaluation ([…]) and 36-item Short Form Mental Health evaluation […].

[1] = FAS population, W6, Missing as non-Rsp
[2] = Full Analysis Set, OC, Week 6, listed as PIM
[3] = Full Analysis Set, added to existing antipsychotic
[4] = Sensitivity: MI in FAS, ANCOVA, W6
[5] = Sensitivity: MI in RAND, ANCOVA, W6
[6] = Sensitivity: OC in PP, MMRM, W6

SMILES: CC(C)COc1ccc(CNC(=O)N(Cc2ccc(F)cc2)C2CCN(C)CC2)cc1 [Pimavanserin, N-(4-Fluorophenylmethyl)-N-(1-methylpiperidin-4-yl)-N′-(4-(2-methylpropyloxy)phenylmethyl)carbamide]
- CGI-I 1 or 2 Rsp, (%) [1]: (35.2) %
- CGI-I 1 or 2 Rsp, Diff in % (PIM − PBO) [1]: 2.1%
- PANSS >= 20% Rsp, (%) [1]: (56.5) %
- PANSS >= 20% Rsp, Diff in % (PIM − PBO) [1]: 5.9%
- PANSS >= 30% Rsp, (%) [1]: (36.8) %
- PANSS >= 30% Rsp, Diff in % (PIM − PBO) [1]: 2.6%
- CGI-I 1 or 2 Rsp, (%) (FAS population, W6, OC): (39.3) %
- CGI-I 1 or 2 Rsp, Diff in % (PIM − PBO) (FAS population, W6, OC): 4.9%
- CGI-I no Chg or Worsened, (%) (FAS population, W6, OC): (27.2) %
- CGI-I no Chg or Worsened, Diff in % (PIM − PBO) (FAS population, W6, OC): −0.9%
- PANSS >= 20% Rsp, (%) (FAS population, W6, OC): (63.0) %
- PANSS >= 20% Rsp, Diff in % (PIM − PBO) (FAS population, W6, OC): 10.6%
- PANSS >= 30% Rsp, (%) (FAS population, W6, OC): (41.0) %
- PANSS >= 30% Rsp, Diff in % (PIM − PBO) (FAS population, W6, OC): 5.6%
- CGI-S score, Change from Baseline to Week 6, Mean (SE) (Full Analysis Set): −0.8 (0.06)
- PANSS Marder negative factor score, Change from Baseline to Week 6, Mean (SE) (Full Analysis Set): −3.3 (0.31)
- PANSS Marder negative factor score, Week 6, Mean (SE) (Full Analysis Set): 19.2 (0.38)
- PANSS negative symptoms scale sub-score, Change from Baseline to Week 6, Mean (SE) (Full Analysis Set): −2.8 (0.28)
- PANSS negative symptoms scale sub-score, Week 6, Mean (SE) (Full Analysis Set): 20.3 (0.35)
- CGI-S score, Diff in MMRM LSM (SE), pimavanserin − placebo (Full Analysis Set, OC, Week 6): −0.1 (0.08)
- CGI-S score, Effect Size (Cohen's d) (Full Analysis Set, OC, Week 6): 0.200
- PANSS Marder negative factor score, Diff in MMRM LSM (SE), pimavanserin − placebo (Full Analysis Set, OC, Week 6): −0.9 (0.41)
- PANSS Marder negative factor score, Effect Size (Cohen's d) (Full Analysis Set, OC, Week 6): 0.218
- PANSS negative symptoms scale sub-score, Diff in MMRM LSM (SE), pimavanserin − placebo (Full Analysis Set, OC, Week 6): −0.7 (0.37)
- PANSS negative symptoms scale sub-score, Effect Size (Cohen's d) (Full Analysis Set, OC, Week 6): 0.206
- PANSS total score, Diff in MMRM LSM (SE), pimavanserin − placebo (Full Analysis Set, OC, Week 6): −2.1 (1.24)
- PANSS total score, Effect Size (Cohen's d) (Full Analysis Set, OC, Week 6): 0.173
- CGI-S score, Diff in MMRM LSM (SE), pimavanserin − placebo [2]: −0.1
- CGI-S score, Effect Size (Cohen's d) [2]: 0.20
- PANSS Marder negative factor score, Diff in MMRM LSM (SE), pimavanserin − placebo [2]: −0.9
- PANSS Marder negative factor score, Effect Size (Cohen's d) [2]: 0.22
- PANSS negative symptoms scale sub-score, Diff in MMRM LSM (SE), pimavanserin − placebo [2]: −0.7
- PANSS negative symptoms scale sub-score, Effect Size (Cohen's d) [2]: 0.21
- PANSS total score, Diff in MMRM LSM (SE), pimavanserin − placebo [2]: −2.1
- PANSS total score, Effect Size (Cohen's d) [2]: 0.17
- CGI-S score, Week 6, Mean (SE) [3]: 3.8 (0.07)
- PANSS total score, Change from Baseline to Week 6, Mean (SE) [3]: −15.3 (0.93)
- PANSS total score, Week 6, Mean (SE) [3]: 72.7 (1.04)
- Positive or negative symptoms, difference between treatment groups (North America): No significant differences
- Clinical Global Impressions-Severity, LS Mean Change at Week 6 (North America subgroup): −0.7
- PANSS Total Score, LS Mean Change at Week 6 (North America subgroup): −14.2
- Clinical Global Impressions-Severity, Cohen's d Effect Size (North America subgroup, Week 6): −0.144
- Clinical Global Impressions-Severity, LS Mean (SE) Difference (North America subgroup, Week 6): 0.1 (0.15)
- PANSS Total Score, Cohen's d Effect Size (North America subgroup, Week 6): −0.229
- PANSS Total Score, LS Mean (SE) Difference (North America subgroup, Week 6): 2.6 (2.74)
- PANSS Total, LSM Change from Baseline at W6 (Sensitivity: MI in FAS, ANCOVA): −15.3
- PANSS Total, Effect Size [4]: 0.16
- PANSS Total, Treatment group Comparison (PIM-PBO) LSM [4]: −1.9
- PANSS Total, LSM Change from Baseline at W6 (Sensitivity: MI in RAND, ANCOVA): −15.2
- PANSS Total, Effect Size [5]: 0.15
- PANSS Total, Treatment group Comparison (PIM-PBO) LSM [5]: −1.9
- PANSS Total, LSM Change from Baseline at W6 (Sensitivity: OC ANCOVA): −15.3
- PANSS Total, Effect Size (Sensitivity: OC ANCOVA, W6): 0.16
- PANSS Total, Treatment group Comparison (PIM-PBO) LSM (Sensitivity: OC ANCOVA, W6): −1.9
- PANSS Total, LSM Change from Baseline at W6 (Sensitivity: OC in PP, MMRM): −15.6
- PANSS Total, Effect Size [6]: 0.19
- PANSS Total, Treatment group Comparison (PIM-PBO) LSM [6]: −2.3
